Tests used:
Type in all cases: in vivo
[1] = system: Peripheral Sensory Neuropathy Induced by Bortezomib in Mice; experiment: cold plate test, bortezomib-induced peripheral sensory neuropathy; conditions: duloxetine 30 mg/kg daily
Experimental: The effect of the Lentinus edodes mycelium extract on the paresthesia to cold stimulation was tested by performing the cold plate test. The mice in the three groups in the above (1) were put on a cold plate set to 10° C. and a response time for avoidance (a latency) was measured. The shorter latency means that the mouse avoids the cold stimulation of the cold plate more.
(§1) In the present test, the mice were divided into three groups by a difference in test objects. As in Example 1, male Balb/c mice of 6 to 7 weeks old were used. The mice were divided into a total of three groups, a control group, a bortezomib administration group, and a bortezomib and Lentinus edodes mycelium extract administration group (bortezomib+Lentinus edodes mycelium extract administration group).
(§2) Bortezomib was administered to each mouse once a day at a dose of 1 mg/kg. Further, the Lentinus edodes mycelium extract was administered to each mouse once a day at a dose of 2 g/kg.
Evaluation was performed in the same manner as in the test with oxaliplatin in Example 1. Referring to FIG. 8, the horizontal axis indicates the elapsed time after administration (days) and the vertical axis indicates the avoidance response time (seconds). Open circles with a solid line represent the control group. Filled circles with a solid line represent the group in which only bortezomib was administered. Open squares with a dash line represent the group in which bortezomib and the Lentinus edodes mycelium extract were administered at the same time (bortezomib+Lentinus edodes mycelium extract administration groups). When the difference with the control group was determined to be significant using a significance level of 5%, the data were marked by “*”.
(§3) In the present test, the mice were divided into six groups by a difference in test objects. As in Example 1, male Balb/c mice of 6 to 7 weeks old were used. […]

[2] = system: Peripheral Sensory Neuropathy Induced by Bortezomib in Mice; experiment: von Frey test, bortezomib-induced peripheral sensory neuropathy; conditions: duloxetine 30 mg/kg daily
Description: The mice in the three groups in the above (1) were put in a cage and a filament having a strength of 0.16 g was pressed on the plantar surface of the leg to measure the number of times (a score) of avoidance response.
as §1, §2
Further, the number of times of administration was set to once a week (on Day 0, Day 7, and Day 14) for bortezomib and daily (from Day 0 to Day 15) for the Lentinus edodes mycelium extract in both the von Frey test and the cold plate test below.
Evaluation was performed in the same manner as in the test with oxaliplatin in Example 1. Referring to FIG. 7, the horizontal axis indicates an elapsed time after administration (days) and the vertical axis indicates the avoidance response (scores). Open circles with a solid line represent the control group. Filled circles with a solid line represent the group in which only bortezomib was administered. Open squares with a dash line represent the group in which bortezomib and the Lentinus edodes mycelium extract were administered at the same time (bortezomib+Lentinus edodes mycelium extract administration group). When the difference with the control group was determined to be significant using a significance level of 5%, the data were marked by “*”.
as §3

[3] = system: Peripheral Sensory Neuropathy Induced by Oxaliplatin in Mice; experiment: von Frey test, oxaliplatin-induced peripheral sensory neuropathy
Experimental: (§4) Male Balb/c mice of 6 to 7 weeks old were used. The mice were divided into three groups: a control group, an oxaliplatin administration group, and an oxaliplatin and Lentinus edodes mycelium extract administration group (oxaliplatin+Lentinus edodes mycelium extract administration group). Oxaliplatin was administered to each mouse once a day at a dose of 6 mg/kg. Further, the Lentinus edodes mycelium extract was administered to each mouse once a day at a dose of 2 g/kg.
(§5) Further, the number of times of administration was set to once a week (on Day 0, Day 7, and Day 14) for oxaliplatin and daily (from Day 0 to Day 15) for the Lentinus edodes mycelium extract in both the von Frey test and the cold plate test below.
The higher number of times of avoidance means that the mouse avoids the stimulation by the filament more. […] When the difference with the control group was determined to be significant using a significance level of 5%, the data were marked by “*”.

[4] = system: Peripheral Sensory Neuropathy Induced by Oxaliplatin in Mice; experiment: cold plate test, oxaliplatin-induced peripheral sensory neuropathy; conditions: duloxetine 30 mg/kg daily
Experimental: as §4, §5
Oxaliplatin was administered to each mouse once a day at a dose of 6 mg/kg. Further, the Lentinus edodes mycelium extract was administered to each mouse once a day at a dose of 2 g/kg three days or six days after the administration of oxaliplatin. These groups are referred to as “Lentinus edodes mycelium extract 3-day delayed administration group” and “Lentinus edodes mycelium extract 6-day delayed administration group”, respectively.
Further, groups in which duloxetine was administered after the administration of oxaliplatin were prepared for comparison.

CNCC[C@H](Oc1cccc2ccccc12)c1cccs1 [duloxetine]
latency compared with bortezomib administration group, cold plate test ([1]; 3-day delayed after bortezomib): almost the same as that in the bortezomib administration group
latency, cold plate test ([1]; 6-day delayed after bortezomib): same tendency as that in the duloxetine 3-day delayed administration group
avoidance score compared with bortezomib administration group, von Frey test ([2]; 3-day delayed after bortezomib): almost the same score as that in the bortezomib administration group
avoidance score, von Frey test ([2]; 6-day delayed after bortezomib): same tendency as that in the duloxetine 3-day delayed administration group
avoidance score compared with oxaliplatin administration group, von Frey test ([3]; duloxetine 30 mg/kg daily Day 3 to Day 23 (3-day delayed) after oxaliplatin 6 mg/kg weekly): almost the same score as that in the oxaliplatin administration group
avoidance score, von Frey test ([3]; duloxetine 30 mg/kg daily Day 6 to Day 23 (6-day delayed) after oxaliplatin 6 mg/kg weekly): same tendency as that in the duloxetine 3-day delayed administration group
latency compared with oxaliplatin administration group, cold plate test ([4]; 3-day delayed after oxaliplatin): almost the same as that in the oxaliplatin administration group
latency, cold plate test ([4]; 6-day delayed after oxaliplatin): same tendency as that in the duloxetine 3-day delayed administration group
